Results as given in PMC6013247, “Preclinical characterization of INCB053914, a novel pan-PIM kinase inhibitor, alone and in combination with anticancer agents, in models of hematologic malignancies” (PLoS ONE, 2018).

How the values were obtained:
[1] = test system: PIM kinase substrates (p70S6K/S6 and 4E-BP1) in MOLM-16, Pfeiffer and KMS-12-PE/BM cell lines; assay: Western blot of PIM kinase substrate phosphorylation in cell lines; assay type: cell-based; details: MOLM-16 (AML), Pfeiffer (DLBCL), KMS-12-PE/BM (MM); 0 to 1 μM, 2 hours
Method: Inhibition of PIM kinase substrate phosphorylation (BAD, S6, p70S6K, and 4E-BP1) and the upregulation of PIM2 (chosen because of its reduced susceptibility to in vitro kinase inhibition) by INCB053914 was determined by incubating 10^6 MOLM-16 (AML), Pfeiffer (DLBCL), KMS-12-PE (MM), and KMS-12-BM (MM) cells with INCB053914 at concentrations ranging from 0 (phosphate-buffered saline [PBS]) to 1 μM for 2 hours in Roswell Park Memorial Institute (RPMI) medium. Cells were centrifuged at 1,000 rpm for 10 minutes and lysed with 1× lysis buffer (Cell Signaling Technology, Danvers, Massachusetts) supplemented with 1 mM phenylmethane sulfonyl fluoride (Sigma-Aldrich, St Louis, Missouri) and proteinase inhibitor cocktail (CalBiochem, San Diego, California). Cell lysates were stored at –80°C before determining phosphoprotein and PIM2 levels by Western blotting using anti-pBAD (S112), anti-p4E-BP1 (S65), pp70S6K (T389), pS6 (S285/S286), and anti-PIM2 antibodies (Cell Signaling Technology).

PKCD = PKCD (Homo sapiens, UniProt Q05655); assay: Kinase selectivity panel; assay type: biochemical; details: [ATP] = 1 mM
Sequence of PKCD (Q05655 whole entry): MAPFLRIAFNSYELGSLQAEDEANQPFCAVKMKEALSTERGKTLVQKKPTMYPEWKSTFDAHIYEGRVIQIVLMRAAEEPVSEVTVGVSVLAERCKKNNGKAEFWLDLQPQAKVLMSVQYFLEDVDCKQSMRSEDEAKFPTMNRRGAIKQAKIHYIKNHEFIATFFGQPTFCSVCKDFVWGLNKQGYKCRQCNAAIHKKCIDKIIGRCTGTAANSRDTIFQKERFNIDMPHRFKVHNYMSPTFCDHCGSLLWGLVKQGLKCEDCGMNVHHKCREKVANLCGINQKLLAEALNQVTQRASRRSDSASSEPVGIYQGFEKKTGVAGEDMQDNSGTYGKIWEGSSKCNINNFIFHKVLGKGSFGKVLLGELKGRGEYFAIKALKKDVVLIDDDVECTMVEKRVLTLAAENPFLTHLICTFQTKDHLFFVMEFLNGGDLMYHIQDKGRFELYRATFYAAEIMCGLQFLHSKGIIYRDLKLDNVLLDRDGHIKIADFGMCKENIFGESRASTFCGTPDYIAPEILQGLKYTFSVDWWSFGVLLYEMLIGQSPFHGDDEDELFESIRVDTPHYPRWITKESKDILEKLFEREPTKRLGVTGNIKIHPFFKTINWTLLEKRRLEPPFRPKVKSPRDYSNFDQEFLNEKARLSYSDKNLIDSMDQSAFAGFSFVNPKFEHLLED

KDR = KDR (Homo sapiens, UniProt P35968); assay: Kinase selectivity panel; assay type: biochemical; details: [ATP] = 1 mM
PAK4 = PAK4 (Homo sapiens, UniProt O96013); assay: Kinase selectivity panel; assay type: biochemical; details: [ATP] = 1 mM
Sequence of PAK4 (O96013 whole entry): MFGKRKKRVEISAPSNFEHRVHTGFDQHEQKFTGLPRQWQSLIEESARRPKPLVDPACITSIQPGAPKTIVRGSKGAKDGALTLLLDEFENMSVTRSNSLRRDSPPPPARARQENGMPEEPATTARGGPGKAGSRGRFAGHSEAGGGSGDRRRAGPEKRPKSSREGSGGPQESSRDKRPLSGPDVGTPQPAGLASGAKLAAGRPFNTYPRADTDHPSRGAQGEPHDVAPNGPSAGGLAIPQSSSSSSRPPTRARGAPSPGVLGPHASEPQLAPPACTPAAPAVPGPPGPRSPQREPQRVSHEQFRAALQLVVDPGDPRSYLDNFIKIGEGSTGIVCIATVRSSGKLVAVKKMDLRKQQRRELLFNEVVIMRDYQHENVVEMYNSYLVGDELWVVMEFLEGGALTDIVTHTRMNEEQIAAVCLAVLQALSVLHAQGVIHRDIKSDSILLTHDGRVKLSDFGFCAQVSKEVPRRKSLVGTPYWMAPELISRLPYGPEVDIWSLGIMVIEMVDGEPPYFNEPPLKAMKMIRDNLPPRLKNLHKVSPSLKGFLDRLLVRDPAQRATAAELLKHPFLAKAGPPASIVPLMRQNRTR

MM cell lines = assay: Cell proliferation assay, all MM cell lines tested; assay type: cell-based; details: read-out: mean GI50 values, range over all MM cell lines tested
Method: The antiproliferative effects of INCB053914 on hematologic tumor cells were investigated using assays described in the Supporting Information (S2 File).
Cell proliferation assays. […] After 3 to 4 days, [^3H]-thymidine (1 μCi/well) (PerkinElmer) in PBS (10 μl) was added to the cell culture for an additional 12 hours. The incorporated radioactivity was separated by filtration with water through GF/B filters (Packard Bioscience, Meriden, Connecticut) and measured by liquid scintillation counting with a TopCount (Packard Bioscience).

PIM1 = PIM1 (Homo sapiens, UniProt P11309); assay: PIM1 AlphaScreen kinase assay; assay type: biochemical; details: 1 mM ATP; read-out: Mean (SD) IC50
Sequence of PIM1 (P11309 whole entry): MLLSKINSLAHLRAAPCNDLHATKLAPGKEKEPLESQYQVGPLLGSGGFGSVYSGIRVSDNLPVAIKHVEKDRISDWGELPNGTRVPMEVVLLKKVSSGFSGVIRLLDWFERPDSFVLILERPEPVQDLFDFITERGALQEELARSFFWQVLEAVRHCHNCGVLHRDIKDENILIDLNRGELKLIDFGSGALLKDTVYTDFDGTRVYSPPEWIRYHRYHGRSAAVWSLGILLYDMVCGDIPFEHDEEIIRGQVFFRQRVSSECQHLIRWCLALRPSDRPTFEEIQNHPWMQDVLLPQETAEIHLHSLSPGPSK
Method: The activity of INCB053914 against the PIM1 and PIM3 kinases was measured using AlphaScreen® assays (PerkinElmer, Inc., Shelton, Connecticut), and against PIM2 kinase using a time-resolved fluorescence resonance energy transfer assay (see Supporting Information, S1 File)
AlphaScreen assay. Reactions (20 μl) were carried out in white 384-well polystyrene plates (Greiner Bio-One, Kremsmünster, Austria) dotted with 0.8 μl of the compound in dimethylsulfoxide in the assay buffer (50 mM Tris, pH 7.5, 0.01% Tween-20, 5 mM MgCl2, 0.01% bovine serum albumin [BSA], 5 mM dithiothreitol) containing 0.05 μM Biotin-labeled Bcl-2–associated death promoter protein peptide substrate (AnaSpec, Fremont, California), 1 mM ATP, and 2.5 pM PIM1 (Invitrogen, Thermo Fisher Scientific, Waltham, Massachusetts), or 1.25 pM PIM3 (Millipore, Billerica, Massachusetts) enzyme. […] After the reactions were stopped, the plates were incubated for 1 hour in the dark at room temperature and then read on a PHERAstar FS plate reader (BMG Labtech, Cary, North Carolina) under reduced light.

SGK1 = SGK1 (Homo sapiens, UniProt O00141); assay: Kinase selectivity panel; assay type: biochemical; details: [ATP] = 1 mM
Sequence of SGK1 (O00141 whole entry, species assumed): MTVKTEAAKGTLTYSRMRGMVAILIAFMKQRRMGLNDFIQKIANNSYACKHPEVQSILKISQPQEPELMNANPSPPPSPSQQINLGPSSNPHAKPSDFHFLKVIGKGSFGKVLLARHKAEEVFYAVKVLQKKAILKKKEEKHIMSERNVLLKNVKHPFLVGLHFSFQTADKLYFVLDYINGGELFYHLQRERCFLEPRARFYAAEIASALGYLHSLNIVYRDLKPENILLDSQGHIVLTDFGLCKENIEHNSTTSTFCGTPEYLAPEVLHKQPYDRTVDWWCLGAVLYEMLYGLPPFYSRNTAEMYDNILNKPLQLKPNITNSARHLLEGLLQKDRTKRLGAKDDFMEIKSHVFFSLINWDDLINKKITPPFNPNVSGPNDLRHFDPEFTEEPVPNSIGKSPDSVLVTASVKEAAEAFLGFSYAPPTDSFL

IGF1R = IGF1R (Homo sapiens, UniProt P08069); assay: Kinase selectivity panel; assay type: biochemical; details: [ATP] = 1 mM
Sequence of IGF1R (P08069 31-1367): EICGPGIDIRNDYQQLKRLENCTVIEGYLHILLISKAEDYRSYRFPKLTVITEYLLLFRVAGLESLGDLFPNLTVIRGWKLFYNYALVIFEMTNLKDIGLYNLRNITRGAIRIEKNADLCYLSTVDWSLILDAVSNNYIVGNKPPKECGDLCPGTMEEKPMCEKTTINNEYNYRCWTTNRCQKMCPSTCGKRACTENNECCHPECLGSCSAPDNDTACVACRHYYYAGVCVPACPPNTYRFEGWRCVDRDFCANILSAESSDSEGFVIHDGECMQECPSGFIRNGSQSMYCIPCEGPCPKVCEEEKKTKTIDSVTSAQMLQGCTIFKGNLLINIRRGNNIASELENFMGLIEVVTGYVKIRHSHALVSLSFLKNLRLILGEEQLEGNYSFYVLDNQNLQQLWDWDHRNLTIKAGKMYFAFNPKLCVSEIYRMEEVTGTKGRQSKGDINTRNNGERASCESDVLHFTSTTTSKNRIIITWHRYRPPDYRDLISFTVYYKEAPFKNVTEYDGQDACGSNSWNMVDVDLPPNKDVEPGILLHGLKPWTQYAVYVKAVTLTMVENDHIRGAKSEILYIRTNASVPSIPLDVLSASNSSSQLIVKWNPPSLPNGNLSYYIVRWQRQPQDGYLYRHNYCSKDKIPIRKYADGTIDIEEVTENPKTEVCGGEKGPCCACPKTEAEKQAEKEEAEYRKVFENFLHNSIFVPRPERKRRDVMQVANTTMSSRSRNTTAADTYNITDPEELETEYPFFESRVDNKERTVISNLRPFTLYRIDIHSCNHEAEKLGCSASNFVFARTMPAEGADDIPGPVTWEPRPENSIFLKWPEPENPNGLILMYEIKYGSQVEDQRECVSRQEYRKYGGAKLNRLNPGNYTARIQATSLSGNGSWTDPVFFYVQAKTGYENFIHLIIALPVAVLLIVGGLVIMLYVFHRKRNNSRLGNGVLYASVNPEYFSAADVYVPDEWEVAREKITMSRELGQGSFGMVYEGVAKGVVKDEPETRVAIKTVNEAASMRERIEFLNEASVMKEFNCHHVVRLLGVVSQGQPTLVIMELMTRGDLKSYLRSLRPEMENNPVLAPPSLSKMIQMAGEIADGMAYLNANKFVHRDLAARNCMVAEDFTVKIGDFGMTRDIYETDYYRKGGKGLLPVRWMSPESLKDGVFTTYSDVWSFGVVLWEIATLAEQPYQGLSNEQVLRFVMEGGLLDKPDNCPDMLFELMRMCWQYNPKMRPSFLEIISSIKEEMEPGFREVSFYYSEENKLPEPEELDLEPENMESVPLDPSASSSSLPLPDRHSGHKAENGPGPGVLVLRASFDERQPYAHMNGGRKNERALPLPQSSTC

LOK = LOK (Homo sapiens, UniProt O94804); assay: Kinase selectivity panel; assay type: biochemical; details: [ATP] = 1 mM
Sequence of LOK (O94804 whole entry): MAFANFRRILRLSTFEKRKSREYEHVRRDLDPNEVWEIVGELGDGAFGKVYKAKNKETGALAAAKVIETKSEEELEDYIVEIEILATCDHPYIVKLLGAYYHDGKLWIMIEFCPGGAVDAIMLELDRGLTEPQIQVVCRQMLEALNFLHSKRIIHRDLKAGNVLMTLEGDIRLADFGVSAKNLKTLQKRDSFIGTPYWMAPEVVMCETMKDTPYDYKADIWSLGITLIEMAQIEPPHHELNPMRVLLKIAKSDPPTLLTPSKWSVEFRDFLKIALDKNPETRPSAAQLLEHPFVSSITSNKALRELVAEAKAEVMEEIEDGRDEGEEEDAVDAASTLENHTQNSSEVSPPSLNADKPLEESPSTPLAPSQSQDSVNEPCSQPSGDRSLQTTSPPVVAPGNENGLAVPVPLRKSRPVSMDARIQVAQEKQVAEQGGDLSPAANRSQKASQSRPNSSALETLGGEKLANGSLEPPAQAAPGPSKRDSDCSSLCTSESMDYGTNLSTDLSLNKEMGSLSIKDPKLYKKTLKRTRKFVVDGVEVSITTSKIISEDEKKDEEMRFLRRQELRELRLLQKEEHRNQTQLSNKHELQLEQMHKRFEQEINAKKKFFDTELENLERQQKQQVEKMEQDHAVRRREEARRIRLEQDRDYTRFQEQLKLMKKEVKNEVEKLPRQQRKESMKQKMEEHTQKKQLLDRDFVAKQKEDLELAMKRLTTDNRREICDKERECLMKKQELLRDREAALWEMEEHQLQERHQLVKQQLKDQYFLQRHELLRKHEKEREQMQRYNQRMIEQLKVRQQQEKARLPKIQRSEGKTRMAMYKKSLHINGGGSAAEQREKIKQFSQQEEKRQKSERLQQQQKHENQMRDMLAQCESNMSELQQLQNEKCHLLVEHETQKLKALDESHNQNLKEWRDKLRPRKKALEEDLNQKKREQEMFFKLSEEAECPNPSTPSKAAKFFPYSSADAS

[2] = Tolerability in tumor-bearing SCID mice; assay type: in vivo; details: MOLM-16 and KMS-12-BM tumor-bearing mice, oral twice a day up to 100 mg/kg
Method: Non- GLP studies intended to characterize the pharmacology of INCB053914 were conducted in accordance with Incyte Corporation's Animal Use Protocols and DuPont Stine-Haskell SOPs. Animals were housed in barrier facilities fully accredited by the Association for Assessment and Accreditation of Laboratory Animal Care, International. All of the procedures were conducted under the supervision of a veterinarian and in accordance with the U.S. Public Health Service Policy on Humane Care and Use of Laboratory Animals. […] Analgesics and anesthetics could be used to minimize animal suffering and distress; neither were required during these studies. Animals on study were monitored twice daily and there were no unexpected deaths.
For the evaluation of the effects of INCB053914 on tumor growth, tumor-bearing mice (MOLM-16 xenograft, eight mice/group; KMS-12-BM xenograft, nine mice/group) were dosed orally twice a day with INCB053914 at doses ranging from 0 (vehicle) to 100 mg/kg for 15 days.

PHKG2 = PHKG2 (Homo sapiens, UniProt P15735); assay: Kinase selectivity panel; assay type: biochemical; details: [ATP] = 1 mM
Sequence of PHKG2 (P15735 whole entry): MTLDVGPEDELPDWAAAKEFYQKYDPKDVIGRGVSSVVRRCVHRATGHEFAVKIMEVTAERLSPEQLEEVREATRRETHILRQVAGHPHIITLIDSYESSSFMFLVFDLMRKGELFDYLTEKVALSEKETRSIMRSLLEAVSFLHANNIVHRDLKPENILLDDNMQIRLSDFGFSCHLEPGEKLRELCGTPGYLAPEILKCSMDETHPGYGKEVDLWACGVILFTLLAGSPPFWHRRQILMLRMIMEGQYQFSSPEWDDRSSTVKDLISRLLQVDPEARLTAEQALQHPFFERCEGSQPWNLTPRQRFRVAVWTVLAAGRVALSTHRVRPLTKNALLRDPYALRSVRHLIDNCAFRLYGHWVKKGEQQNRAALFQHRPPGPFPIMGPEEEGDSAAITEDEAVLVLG

C[C@H]1CN(c2c(NC(=O)c3ccc(F)c(-c4c(F)cccc4F)n3)cnc3c2CC[C@H]3O)C[C@@H](N)[C@@H]1O.O=P(O)(O)O [INCB053914, N-((R)-4-((3R,4R,5S)-3-amino-4-hydroxy-5-methylpiperidin-1-yl)-7-hydroxy-6,7-dihydro-5H-cyclopenta[b]pyridin-3-yl)-6-(2,6-difluorophenyl)-5-fluoropicolinamide phosphate]
phosphorylation of downstream PIM kinase substrates (p70S6K/S6 and 4E-BP1) [1]: inhibited the phosphorylation of downstream PIM kinase substrates (p70S6K/S6 and 4E-BP1) in a dose-dependent manner | IC50 (PKCD): > 20 µM | IC50 (KDR): > 20 µM | IC50 (PAK4): > 20 µM | GI50 (MM cell lines): 0.0132 to 0.23 µM | IC50 (PIM1): 0.00024 µM | IC50 (SGK1): > 20 µM | IC50 (IGF1R): > 20 µM | IC50 (LOK): > 20 µM | tolerability [2]: tolerated at all doses tested | IC50 (PHKG2): > 20 µM
